Test results taken from patent US20200172483A1, “HETEROCYCLIC SMALL MOLECULE MODULATORS OF HUMAN STING” (Curadev Pharma Limited, priority 2017, published 2020).
Where two headings read alike, the source gives them in different places.

Assays:
IRF pathway = test: Reporter gene expression assay for IRF axis in THP1-Dual cells (secreted Lucia luciferase); type: cell-based, human; conditions: 20 hr stimulation, QUANTI-Luc, EC50 range, read-out: THP-IRF activity
How it was run: (§1)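 THP1-Dual cells (THP-1 monocytes with inducible NF-κB-SEAP and IRF-Lucia reporters; 5×10^5 cells) were stimulated with compounds for 20 hr. Secreted SEAP (QUANTI-Blue) and Lucia luciferase (QUANTI-Luc) were then measured in the supernatant. EC50 values are reported as ranges.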

hSTING (HAQ) = target: T1, hSTING (HAQ) (Homo sapiens, UniProt Q86WV6, G230A/H232R/R293Q/R71H); test: Luciferase reporter assay in HEK293T-hSTING-Luciferase cells (HAQ polymorph); type: cell-based; conditions: EC50 range
T1 construct: host or cells: HEK293T
T1 sequence (Q86WV6 whole entry R71H/G230A/H232R/R293Q): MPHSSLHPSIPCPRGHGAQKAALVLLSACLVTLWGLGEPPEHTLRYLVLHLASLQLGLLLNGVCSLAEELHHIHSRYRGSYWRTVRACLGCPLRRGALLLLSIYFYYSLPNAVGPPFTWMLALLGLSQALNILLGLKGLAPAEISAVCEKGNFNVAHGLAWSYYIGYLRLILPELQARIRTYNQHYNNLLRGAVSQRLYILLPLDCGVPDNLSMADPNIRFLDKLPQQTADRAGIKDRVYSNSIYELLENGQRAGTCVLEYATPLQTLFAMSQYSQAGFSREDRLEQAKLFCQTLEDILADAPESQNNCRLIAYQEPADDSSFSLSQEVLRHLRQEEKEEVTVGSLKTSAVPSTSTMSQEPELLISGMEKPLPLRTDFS
How it was run: (§2)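 Clonal HEK293T lines stably expressing the hSTING variant (H232 or HAQ) plus an ISRE/ISG54-driven secreted luciferase reporter were stimulated with compounds for 20 hr. Supernatant luciferase measured by luminescence (Quanti-Luc).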

WT/R232 STING protein = target: T2, WT/R232 STING protein (Homo sapiens, UniProt Q86WV6, H232R); test: Luciferase reporter assay in HEK293T-hSTING-Luciferase cells (R232); type: cell-based; conditions: 20 hr stimulation, EC50 range
T2 construct: host or cells: HEK293T
T2 sequence (Q86WV6 whole entry H232R): as the sequence (Q86WV6 whole entry R71H/G230A/H232R/R293Q) above, with H71R, A230G, Q293R counted along it
How it was run: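 Clonal HEK293T cells stably expressing human STING R232 plus an ISRE/ISG54-driven secreted luciferase reporter, stimulated with compounds for 20 hr. Luciferase in supernatant read by luminescence; activity given as fold-induction over baseline.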

NF-κB pathway = test: Reporter gene expression assay for NFκB axis in THP1-Dual cells (secreted SEAP); type: cell-based, human; conditions: 20 hr stimulation, QUANTI-Blue SEAP, EC50 range, read-out: THP-NFKB activity
How it was run: as §1

hSTING (H232) = target: T3, hSTING (H232) (Homo sapiens, UniProt Q86WV6); test: Luciferase reporter assay in HEK293T-hSTING-Luciferase cells (H232/REF polymorph); type: cell-based; conditions: EC50 range
T3 construct: host or cells: HEK293T
T3 sequence (Q86WV6 whole entry): as the sequence (Q86WV6 whole entry R71H/G230A/H232R/R293Q) above, with H71R, A230G, R232H, Q293R counted along it
How it was run: as §2

Row | SMILES | EC50 (IRF pathway; Homo sapiens, THP1-Dual, 20 h) [µM] | EC50 (hSTING (HAQ)) [µM] | EC50 (WT/R232 STING protein) [µM] | EC50 (NF-κB pathway; Homo sapiens, THP1-Dual, 20 h) [µM] | EC50 (hSTING (H232)) [µM] | EC50 (NF-κB pathway) [µM] | EC50 (IRF pathway) [µM]
1 | Cc1nn(CCO)c(CN2C(=O)C(C)(C)c3ccc(C(=O)NCc4cc5cc(F)ccc5o4)cc32)c1F [Example 119, 1-((4-fluoro-1-(2-hydroxyethyl)-3-methyl-1H-pyrazol-5-yl)methyl)-N-((5-fluorobenzofuran-2-yl)methyl)-3,3-dimethyl-2-oxoindoline-6-carboxamide] | 1 to 10 | 1 to 10 | ≤ 1 | 1 to 10 | 1 to 10 | – | –
2 | CC1(C)C(=O)N(Cc2ccccc2C#N)c2cc(C(=O)NCc3c(F)cc(F)cc3F)ccc21 [Example 124, 1-(2-cyanobenzyl)-3,3-dimethyl-2-oxo-N-(2,4,6-trifluorobenzyl)indoline-6-carboxamide] | > 10 | 1 to 10 | ≤ 1 | > 10 | 1 to 10 | – | –
3 | CC1(C)CN(C(=O)Cc2ccccc2)c2cc(C(=O)NCc3c(F)cc(F)cc3F)ccc21 [Example 136, 3,3-dimethyl-1-(2-phenylacetyl)-N-(2,4,6-trifluorobenzyl)indoline-6-carboxamide] | > 10 | 1 to 10 | 1 to 10 | > 10 | > 10 | – | –
4 | O=C(NCc1c(F)cc(F)cc1F)c1ccc2c(c1)N(Cc1cc(F)cc(F)c1)C(=O)C21CCCC1 [Example 137, 1′(3,5-difluorobenzyl)-2′-oxo-N-(2,4,6-trifluorobenzyl)spiro[cyclopentane-1,3′-indoline]-6′-carboxamide] | > 10 | 1 to 10 | 1 to 10 | > 10 | 1 to 10 | – | –
5 | CC1(Cl)C(=O)N(Cc2c(F)cccc2Cl)c2cc(C(=O)NCc3c(F)cc(F)cc3F)ccc21 (stereo not shown) [Example 146, 3-chloro-1(2-chloro-6-fluorobenzyl)-3-methyl-2-oxo-N-(2,4,6-trifluorobenzyl)indoline-6-carboxamide] | > 10 | 1 to 10 | ≤ 1 | 1 to 10 | 1 to 10 | – | –
6 | CC1(Cl)C(=O)N(Cc2cc(F)cc(F)c2)c2cc(C(=O)NCc3c(F)cc(F)cc3F)ccc21 (stereo not shown) [Example 148] | – | 1 to 10 | 1 to 10 | – | 1 to 10 | > 10 | > 10
7 | CCC1(OC)C(=O)N(Cc2c(F)cccc2Cl)c2cc(C(=O)NCc3c(F)cc(F)cc3F)ccc21 (stereo not shown) [Example 161, 1-(2-chloro-6-fluorobenzyl)-3-ethyl-3-methoxy-2-oxo-N-(2,4,6-trifluorobenzyl)indoline-6-carboxamide] | > 10 | 1 to 10 | 1 to 10 | > 10 | 1 to 10 | – | –
8 | CC1(C#N)C(=O)N(Cc2c(F)cccc2Cl)c2cc(C(=O)NCc3c(F)cc(F)cc3F)ccc21 (stereo not shown) [Example 165, 1-(2-chloro-6-fluorobenzyl)-3-cyano-3-methyl-2-oxo-N-(2,4,6-trifluorobenzyl)indoline-6-carboxamide] | – | ≤ 1 | ≤ 1 | – | ≤ 1 | 1 to 10 | > 10
9 | CC1(C)C(=O)N(Cc2cc(F)cc(F)c2)c2nc(C(=O)NCc3cc4ccccc4o3)ccc21 [Example 182, N-(benzofuran-2-ylmethyl)-1-(3,5-difluorobenzyl)-3,3-dimethyl-2-oxo-2,3-dihydro-1H-pyrrolo[2,3-b]pyridine-6-carboxamide] | > 10 | 1 to 10 | 1 to 10 | > 10 | 1 to 10 | – | –
10 | Cc1ccc(CNC(=O)c2ccc3c(n2)N(Cc2cc(F)cc(F)c2)C(=O)C3(C)C)o1 [Example 188, 1-(3,5-difluorobenzyl)-3,3-dimethyl-N-((5-methylfuran-2-yl)methyl)-2-oxo-2,3-dihydro-1H-pyrrolo[2,3-b]pyridine-6-carboxamide] | > 10 | 1 to 10 | 1 to 10 | > 10 | 1 to 10 | – | –
11 | CC1(C)C(=O)N(Cc2cc(F)cc(F)c2)c2nc(C(=O)NCc3ccc(F)cc3)ccc21 [Example 189, 1-(3,5-difluorobenzyl)-N-(4-fluorobenzyl)-3,3-dimethyl-2-oxo-2,3-dihydro-1H-pyrrolo[2,3-b]pyridine-6-carboxamide] | > 10 | 1 to 10 | ≤ 1 | > 10 | 1 to 10 | – | –
12 | CC1(C)C(=O)N(Cc2cc(F)cc(F)c2)c2nc(C(=O)NCc3ccccc3)ccc21 [Example 191, N-benzyl-1-(3,5-difluorobenzyl)-3,3-dimethyl-2-oxo-2,3-dihydro-1H-pyrrolo[2,3-b]pyridine-6-carboxamide] | > 10 | 1 to 10 | 1 to 10 | > 10 | 1 to 10 | – | –

The next lines start with the values.

Row | EC50 (IRF pathway; Homo sapiens, THP1-Dual, 20 h) [µM] | EC50 (hSTING (HAQ)) [µM] | EC50 (WT/R232 STING protein) [µM] | EC50 (NF-κB pathway; Homo sapiens, THP1-Dual, 20 h) [µM] | EC50 (hSTING (H232)) [µM] | EC50 (NF-κB pathway) [µM] | EC50 (IRF pathway) [µM] | SMILES
13 | > 10 | 1 to 10 | ≤ 1 | – | 1 to 10 | 1 to 10 | – | CC1(Cl)C(=O)N(Cc2cc(F)cc(F)c2)c2cc(C(=O)NCc3c(F)cc(F)cc3F)ccc21 (stereo not shown) [Example 144, 3-Chloro-1-(3,5-difluorobenzyl)-3-methyl-2-oxo-N-(2,4,6 trifluorobenzyl) indoline-6-carboxamide]
14 | – | > 10 | ≤ 1 | – | > 10 | > 10 | > 10 | CC1(Cl)C(=O)N(Cc2cc(F)cc(F)c2)c2cc(C(=O)NCc3c(F)cc(F)cc3F)ccc21 (stereo not shown) [Example 147, 3-chloro-1-(3,5-difluorobenzyl)-3-methyl-2-oxo-N-(2,4,6-trifluorobenzyl)indoline-6-carboxamide]
15 | > 10 | 1 to 10 | ≤ 1 | 1 to 10 | 1 to 10 | – | – | CC1(N=[N+]=[N-])C(=O)N(Cc2c(F)cccc2Cl)c2cc(C(=O)NCc3c(F)cc(F)cc3F)ccc21 (stereo not shown) [Example 153, 3-azido-1(2-chloro-6-fluorobenzyl)-3-methyl-2-oxo-N-(2,4,6-trifluorobenzyl)indoline-6-carboxamide]
16 | > 10 | > 10 | ≤ 1 | > 10 | > 10 | – | – | CCC1(Cl)C(=O)N(Cc2c(F)cccc2Cl)c2cc(C(=O)NCc3c(F)cc(F)cc3F)ccc21 (stereo not shown) [Example 155, 3-chloro-1-(2-chloro-6-fluorobenzyl)-3-ethyl-2-oxo-N-(2,4,6-trifluorobenzyl)indoline-6-carboxamide]
17 | > 10 | 1 to 10 | ≤ 1 | > 10 | 1 to 10 | – | – | CC(C)C1(Cl)C(=O)N(Cc2c(F)cccc2Cl)c2cc(C(=O)NCc3c(F)cc(F)cc3F)ccc21 (stereo not shown) [Example 157, 3-chloro-1-(2-chloro-6-fluorobenzyl)-3-isopropyl-2-oxo-N-(2,4,6-trifluorobenzyl)indoline-6-carboxamide]
18 | > 10 | 1 to 10 | ≤ 1 | – | ≤ 1 | > 10 | – | CC1(C#N)C(=O)N(Cc2c(F)cccc2Cl)c2cc(C(=O)NCc3c(F)cc(F)cc3F)ccc21 (stereo not shown) [Example 164, 1-(2-chloro-6-fluorobenzyl)-3-cyano-3-methyl-2-oxo-N-(2,4,6-trifluorobenzyl)indoline-6-carboxamide]
19 | – | 1 to 10 | ≤ 1 | – | 1 to 10 | > 10 | > 10 | CC1(C#N)C(=O)N(Cc2c(F)cccc2Cl)c2cc(C(=O)NCc3c(F)cc(F)cc3F)ccc21 (stereo not shown) [Example 166, 1-(2-chloro-6-fluorobenzyl)-3-cyano-3-methyl-2-oxo-N-(2,4,6-trifluorobenzyl)indoline-6-carboxamide]
20 | 1 to 10 | 1 to 10 | 1 to 10 | 1 to 10 | 1 to 10 | – | – | C=CCC1(C)C(=O)N(Cc2cc(C)nn2CC)c2cc(C(=O)NCc3c(F)cc(F)cc3F)ccc21 (stereo not shown) [Example 175, 3-allyl-1-((1-ethyl-3-methyl-1H-pyrazol-5-yl)methyl)-3-methyl-2-oxo-N-(2,4,6-trifluorobenzyl)indoline-6-carboxamide]
